Test: Evaluation of appearance (Test Example 1)
Format: physicochemical
Conditions: allowed to stand, about 1 hour after production; transparent / separated / cloudy
Method: After producing the pharmaceutical compositions and the self-emulsifying compositions of Reference Examples by the production methods as described above, the compositions were allowed to stand, and after about 1 hour, their appearance was evaluated. The composition was evaluated “transparent” when the composition was homogeneous due to the good compatibility. The composition was evaluated “separated” when the separation was observed and “cloudy” when opacity was observed.

SMILES: CC(C)c1c(C(=O)Nc2ccccc2)c(-c2ccccc2)c(-c2ccc(F)cc2)n1CC[C@@H](O)C[C@@H](O)CC(=O)[O-].CC(C)c1c(C(=O)Nc2ccccc2)c(-c2ccccc2)c(-c2ccc(F)cc2)n1CC[C@@H](O)C[C@@H](O)CC(=O)[O-].[Ca+2] [atorvastatin calcium]
- Appearance: good appearance was not realized
